Reference: ChEMBL document CHEMBL1201862, “PubChem BioAssay data set” (2004)
Active and inactive are the calls of the source.

Legend:
[1] = biological target: T1, E3 ubiquitin-protein ligase XIAP (Homo sapiens, UniProt P98170); test: Counter Screen using XIAP-Bir3 for Chemical Antagonists of Bir1/2 domains of IAP-family anti-apoptotic proteins. [Related pubchem assays (depositor defined):AID1018, AID1449, AID1514, AID1638, AID1749, AID1750, AID488957, AID488963]
[2] = biological target: T1, E3 ubiquitin-protein ligase XIAP; test: XIAP antagonists, biochemical, IAP family, fluorescence polarization (AID 1018); type: functional
X-box-binding protein 1 = biological target: T2, X-box-binding protein 1 (Homo sapiens, UniProt P17861); type: functional, Cricetulus griseus;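 also: confirmatory dose-response counter-screen serving a CHOP assay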
T2 sequence (P17861 whole entry): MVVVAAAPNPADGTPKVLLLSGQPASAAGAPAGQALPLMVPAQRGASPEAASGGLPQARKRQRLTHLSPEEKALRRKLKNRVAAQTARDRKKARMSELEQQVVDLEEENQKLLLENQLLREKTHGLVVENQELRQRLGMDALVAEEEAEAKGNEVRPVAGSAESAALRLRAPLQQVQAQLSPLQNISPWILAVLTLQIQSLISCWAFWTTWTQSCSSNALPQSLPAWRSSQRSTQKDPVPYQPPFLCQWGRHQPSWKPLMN

[3] = biological target: T3, Heat shock factor protein 1 (Mus musculus, UniProt P38532); test: inhibition of MG132-induced HSE-luciferase signal, confirmation, cell-based, NIH3T3, luminescence, dose retest (AID 2382); type: functional;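 also: NIH3T3 fibroblasts with HSF1-driven luciferase reporter stressed by proteasome inhibitor MG132; luminescence from HSF1-driven luciferase expression after 8 hours of MG132 stress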
T3 sequence (P38532 whole entry): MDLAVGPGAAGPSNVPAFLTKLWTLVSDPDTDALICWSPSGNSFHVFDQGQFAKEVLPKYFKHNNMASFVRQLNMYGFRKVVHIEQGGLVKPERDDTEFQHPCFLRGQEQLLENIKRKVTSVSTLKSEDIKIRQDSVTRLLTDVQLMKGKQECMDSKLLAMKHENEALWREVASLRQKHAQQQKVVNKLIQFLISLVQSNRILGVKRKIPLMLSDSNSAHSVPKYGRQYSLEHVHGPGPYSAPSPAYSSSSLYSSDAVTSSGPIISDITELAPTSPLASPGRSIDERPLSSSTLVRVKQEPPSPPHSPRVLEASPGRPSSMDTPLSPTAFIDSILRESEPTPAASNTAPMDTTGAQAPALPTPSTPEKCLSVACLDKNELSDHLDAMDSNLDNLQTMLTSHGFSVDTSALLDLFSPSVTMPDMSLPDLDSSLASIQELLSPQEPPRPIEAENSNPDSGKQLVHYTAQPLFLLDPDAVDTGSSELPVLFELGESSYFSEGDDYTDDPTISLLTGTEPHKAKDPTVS

[4] = biological target: T4, Aryl hydrocarbon receptor (Homo sapiens, UniProt P35869); test: Luminescence-based cell-based high throughput dose response assay for activators of the Aryl Hydrocarbon Receptor (AHR). [Related pubchem assays: 2796 (Primary screen (AHR activators in singlicate)), 2845 (Confirmation screen (AHR activators in triplicate)), 434939 (Counterscreen (PXR activators in triplicate)), 2804 (Summary (AHR activators))]; type: ADME
T4 sequence (P35869 whole entry): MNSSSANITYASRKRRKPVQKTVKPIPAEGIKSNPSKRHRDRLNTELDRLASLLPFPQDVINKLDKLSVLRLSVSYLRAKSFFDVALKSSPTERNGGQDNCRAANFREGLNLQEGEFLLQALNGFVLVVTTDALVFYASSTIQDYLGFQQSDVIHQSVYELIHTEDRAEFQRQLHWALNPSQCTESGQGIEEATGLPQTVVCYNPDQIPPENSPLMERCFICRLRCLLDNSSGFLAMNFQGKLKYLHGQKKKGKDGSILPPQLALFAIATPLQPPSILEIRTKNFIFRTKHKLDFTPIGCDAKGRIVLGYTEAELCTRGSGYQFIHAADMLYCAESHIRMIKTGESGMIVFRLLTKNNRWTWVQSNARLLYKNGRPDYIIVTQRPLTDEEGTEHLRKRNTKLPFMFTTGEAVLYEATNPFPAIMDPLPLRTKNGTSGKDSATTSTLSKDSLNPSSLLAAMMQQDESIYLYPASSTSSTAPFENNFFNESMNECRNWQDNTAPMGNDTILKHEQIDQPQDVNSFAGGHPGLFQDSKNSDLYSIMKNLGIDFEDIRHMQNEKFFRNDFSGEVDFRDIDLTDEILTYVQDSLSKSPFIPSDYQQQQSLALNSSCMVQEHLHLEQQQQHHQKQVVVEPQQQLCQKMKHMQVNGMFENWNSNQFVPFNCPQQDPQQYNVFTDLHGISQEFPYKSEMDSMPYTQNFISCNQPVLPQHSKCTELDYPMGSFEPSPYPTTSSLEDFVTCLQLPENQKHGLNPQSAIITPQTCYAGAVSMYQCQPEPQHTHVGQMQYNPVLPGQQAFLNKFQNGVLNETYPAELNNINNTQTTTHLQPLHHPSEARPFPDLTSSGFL

Caspase-6 = biological target: T5, Caspase-6 (Homo sapiens, UniProt P55212); test: human caspase-6 inhibitors, dose response, biochemical, VEID-R110 fluorescence, cherry-pick (AID 720632)
T5 sequence (P55212 whole entry): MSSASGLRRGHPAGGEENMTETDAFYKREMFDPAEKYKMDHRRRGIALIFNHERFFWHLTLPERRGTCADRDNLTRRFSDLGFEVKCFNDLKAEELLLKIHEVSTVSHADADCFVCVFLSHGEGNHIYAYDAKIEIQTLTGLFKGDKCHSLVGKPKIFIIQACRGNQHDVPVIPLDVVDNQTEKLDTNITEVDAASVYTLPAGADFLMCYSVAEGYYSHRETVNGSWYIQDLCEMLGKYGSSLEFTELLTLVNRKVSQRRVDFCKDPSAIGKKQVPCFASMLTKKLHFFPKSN

[5] = system: Streptococcus sp. 'group A'; test: growth inhibition of control SK(-) GAS strain, dose response, counter-screen for streptokinase expression inhibitor project, luminescence, kanamycin, BacTiterGlo, confirmation (AID 1900); type: functional, organism-based
Streptococcus = test: Group A Streptococcus viability loss, dose response, counter-screen for streptokinase expression inhibitor project, luminescence, BacTiterGlo (AID 1915); type: functional, organism-based;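 also: potency for reduction of bacterial viability or growth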

T1 sequence (P98170 whole entry): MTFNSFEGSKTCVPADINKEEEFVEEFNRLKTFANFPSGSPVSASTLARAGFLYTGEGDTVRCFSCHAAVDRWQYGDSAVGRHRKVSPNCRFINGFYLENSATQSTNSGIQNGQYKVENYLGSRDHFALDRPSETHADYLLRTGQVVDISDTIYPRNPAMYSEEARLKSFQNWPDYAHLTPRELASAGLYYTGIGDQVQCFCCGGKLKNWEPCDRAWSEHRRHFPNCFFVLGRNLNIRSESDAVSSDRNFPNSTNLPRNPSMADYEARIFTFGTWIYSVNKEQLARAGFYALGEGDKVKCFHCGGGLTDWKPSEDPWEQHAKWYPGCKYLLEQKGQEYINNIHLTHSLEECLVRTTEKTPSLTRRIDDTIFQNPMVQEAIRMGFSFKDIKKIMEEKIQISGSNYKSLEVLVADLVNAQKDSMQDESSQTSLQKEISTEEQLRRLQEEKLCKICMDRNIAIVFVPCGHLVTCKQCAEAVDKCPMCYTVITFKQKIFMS

SMILES | IC50 [1] | IC50 [2] | EC50 [4] | also measured
Cc1cc(S(=O)(=O)N2CCN(Cc3ccccc3)CC2)c(C)s1 | > 100 µM (inactive) | > 100 µM (not active) |  | 
Cn1c(-c2cccc(OCc3ccccc3)c2)nc2c1c(=O)[nH]c(=O)n2Cc1ccccc1 |  |  |  | Absolute IC50 (XBP1) (X-box-binding protein 1): 10 µM
CC(C)CC(NC(=O)c1ccco1)C(=O)Nc1ccc2c(c1)OCCO2 (stereo unspecified) | > 100 µM (inactive) | > 100 µM (not active) |  | EC50 [3]: 11.3 µM (active)
COC(=O)c1ccccc1NC(=O)Cn1ccnc1 |  |  | 2.18 µM (active) | 
CCCC(=O)Nc1nn(C)c2nc3cc(C)ccc3cc12 |  |  | 0.458 µM (active) | 
CC[C@H]1OC(=O)[C@H](C)[C@@H](O[C@H]2C[C@@](C)(OC)[C@@H](O)[C@H](C)O2)[C@H](C)[C@@H](O[C@@H]2O[C@H](C)C[C@H](N(C)C)[C@H]2O)[C@](C)(O)C[C@@H](C)[C@@H]2N[C@@H](COCCOC)O[C@H]([C@H]2C)[C@]1(C)O [DIRITHROMYCIN] | > 100 µM (inactive) | > 100 µM (not active) |  | EC50 [5]: < 0.06 µM (active); EC50 (Streptococcus): 0.117 µM (active)

Further lines, with some results ahead:

IC50 [1] | IC50 [2] | EC50 [4] | SMILES | also measured
> 100 µM (inactive) | > 100 µM (not active) |  | CN1CCN(c2ccccc2NC(=O)c2ccc(-c3cccc([N+](=O)[O-])c3)o2)CC1 | 
 |  | 4.82 µM (active) | O=C(O)COn1c(-c2ccccc2)nc2ccc([N+](=O)[O-])cc21 | AC50 (Caspase-6): 5.23 µM (active)
